Test results reported in article PMC9181691, “Characterization of the Biomass Degrading Enzyme GuxA from Acidothermus cellulolyticus” (International Journal of Molecular Sciences, 2022).

Molecular target: T1, GuxA GH12 domain (Acidothermus cellulolyticus, UniProt A0LSH8)
T1 construct: gene Acel_0615; GH12 catalytic domain only (between CBM3 and CBM2 of full-length GuxA), codon optimized, C-terminal hexahistidine tag, pET22b(+), E. coli BL21(DE3), 24 kDa
Test: X-ray crystallography, crystal soak
Format: binding
Settings: 24 h soak with excess cellobiose powder; crystals from 10% PEG 8K, 0.2 M ZnCl2, 0.1 M Na cacodylate pH 6.5; active site groove

T1 sequence (A0LSH8 entry or part of it): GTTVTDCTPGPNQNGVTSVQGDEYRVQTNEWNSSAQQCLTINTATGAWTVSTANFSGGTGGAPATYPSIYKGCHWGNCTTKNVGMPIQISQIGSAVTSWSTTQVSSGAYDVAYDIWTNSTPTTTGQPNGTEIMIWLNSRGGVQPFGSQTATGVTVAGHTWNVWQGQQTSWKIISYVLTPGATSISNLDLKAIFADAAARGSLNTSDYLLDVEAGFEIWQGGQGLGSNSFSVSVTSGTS

`OC[C@H]1O[C@@H](O[C@H]2[C@H](O)[C@@H](O)C(O)O[C@@H]2CO)[C@H](O)[C@@H](O)[C@@H]1O` (stereo partly shown) [cellobiose] was tested, and the “X-ray crystallography, crystal soak” value was “A cellobiose molecule was found and modeled in the active site groove”.
